Assays:
Assay in all cases: relative viability (nuclei count vs DMSO), 5 days (fraction); higher = more cells survive
Tosedostat + Bortezomib = compound: CC(C)C[C@@H](C(=O)N[C@H](C(=O)OC1CCCC1)c1ccccc1)[C@H](O)C(=O)NO [Tosedostat] + CC(C)C[C@H](NC(=O)[C@H](Cc1ccccc1)NC(=O)c1cnccn1)B(O)O [Bortezomib] (partner 0.002 µM)
Procedure, shortened: (§1)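 Five library-drug doses in √10 steps were combined with a fixed anchor-drug dose, or a single drug was given alone, by pin tool to lung cancer cell lines in 1536-well plates the day after seeding. Nuclei were stained and counted after 5 days. Relative viability is the nuclei count in treated wells over that in vehicle wells, taken as the median of duplicate plates.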

Tosedostat + Dasatinib = compound: CC(C)C[C@@H](C(=O)N[C@H](C(=O)OC1CCCC1)c1ccccc1)[C@H](O)C(=O)NO [Tosedostat] + Cc1nc(Nc2ncc(C(=O)Nc3c(C)cccc3Cl)s2)cc(N2CCN(CCO)CC2)n1 [Dasatinib] (partner 0.075 µM)
Procedure, shortened: as §1

[1] = compound: CC1=NN=C(O1)C2=NN=C(C=C2)N3CCC(CC3)OC4=C(C=CC(=C4)F)Cl + CC(=O)Nc1cccc(-n2c(=O)n(C3CC3)c(=O)c3c(Nc4ccc(I)cc4F)n(C)c(=O)c(C)c32)c1 [Trametinib] (partner 0.02 µM)
Procedure, shortened: as §1

[2] = compound: CC1=NN=C(O1)C2=NN=C(C=C2)N3CCC(CC3)OC4=C(C=CC(=C4)F)Cl + COc1cc2c(Oc3ccc(NC(=O)C4(C(=O)Nc5ccc(F)cc5)CC4)cc3F)ccnc2cc1OCCCN1CCOCC1 [Foretinib] (partner 0.25 µM)
Procedure, shortened: as §1

| Cell Line | relative viability (Tosedostat + Bortezomib; first compound 0.02 µM) | relative viability (Tosedostat + Bortezomib; first compound 0.06325 µM) | relative viability (Tosedostat + Bortezomib; first compound 0.2 µM) | relative viability (Tosedostat + Bortezomib; first compound 0.6325 µM) | relative viability (Tosedostat + Bortezomib; first compound 2 µM) | relative viability (Tosedostat + Dasatinib; first compound 0.02 µM) | relative viability (Tosedostat + Dasatinib; first compound 0.06325 µM) | relative viability (Tosedostat + Dasatinib; first compound 0.2 µM) | relative viability (Tosedostat + Dasatinib; first compound 0.6325 µM) | relative viability (Tosedostat + Dasatinib; first compound 2 µM) | relative viability ([1]; first compound 0.253 µM) | relative viability ([1]; first compound 2.53 µM) | relative viability ([1]; first compound 8 µM) | relative viability ([2]; first compound 0.253 µM) | relative viability ([2]; first compound 0.8 µM) | relative viability ([2]; first compound 2.53 µM) | relative viability ([2]; first compound 8 µM) | relative viability ([1]; first compound 0.8 µM) |
| --- | --- | --- | --- | --- | --- | --- | --- | --- | --- | --- | --- | --- | --- | --- | --- | --- | --- | --- |
| LCLC-97TM1 | 0.529 | 0.696 | 0.537 | 0.336 | 0.193 | 0.901 | 0.988 | 0.811 | 0.819 | 0.915 | 0.175 | 0.191 | 0.148 | 0.481 | 0.439 | 0.433 | 0.381 | – |
| NCI-H838 | 0.82 | 0.852 | 0.646 | 0.918 | 1.1 | 0.317 | 0.342 | 0.299 | 0.329 | 0.27 | 0.406 | 0.478 | 0.428 | 0.887 | 0.83 | 0.868 | 0.88 | 0.429 |
| SK-LU-1 | 1.33 | 1.14 | 1.15 | 0.921 | 0.718 | 0.184 | 0.191 | 0.219 | 0.197 | 0.203 | 0.47 | 0.531 | 0.407 | 0.698 | – | 0.696 | 0.557 | 0.417 |
| H3255 | 0.883 | 0.927 | 0.86 | 0.621 | 0.648 | 0.278 | 0.35 | 0.347 | 0.429 | 0.33 | 0.407 | 0.573 | 0.483 | 0.793 | 0.644 | 0.783 | 0.673 | 0.491 |
| NCI-H1651 | 0.973 | 1.03 | 0.834 | 0.834 | 0.914 | 0.566 | 0.384 | 0.411 | 0.399 | 0.338 | 0.651 | 0.609 | 0.576 | 0.819 | 0.619 | 0.689 | 0.848 | 0.621 |
| LXF-289 | 1.05 | 0.992 | 0.974 | 0.978 | 0.989 | 0.199 | 0.248 | 0.244 | 0.225 | 0.184 | 0.603 | 0.637 | 0.58 | 0.692 | 0.671 | 0.66 | 0.563 | 0.582 |
| HCC-827 | 1.1 | 1.04 | 1.07 | 1 | 1.01 | 0.308 | 0.34 | 0.301 | 0.377 | 0.288 | 0.42 | 0.431 | 0.399 | 0.381 | 0.239 | 0.353 | 0.318 | 0.343 |
| HCC-366 | 1.05 | 1.03 | 1.03 | 1.07 | 1.04 | 0.723 | 0.594 | 0.665 | 0.556 | 0.646 | 0.16 | 0.268 | 0.193 | 0.46 | 0.574 | 0.466 | 0.343 | 0.23 |
| BEN | 0.973 | 1.08 | 0.827 | 0.908 | 0.728 | 0.348 | 0.348 | 0.39 | 0.446 | 0.344 | 1.1 | 1.03 | 1.17 | 0.679 | 0.7 | 0.665 | 0.541 | 1.12 |
| NCI-H322M | 1.36 | 0.853 | 1.2 | 1.1 | 1.08 | 0.272 | 0.256 | 0.268 | 0.279 | 0.246 | 0.563 | 0.477 | 0.52 | 0.937 | 0.908 | 1.03 | 0.95 | 0.487 |
| 201T | 1.1 | 1.08 | 1.14 | 1.14 | 1.21 | 0.566 | 0.632 | 0.635 | 0.717 | 0.553 | 0.414 | 0.405 | 0.384 | 0.607 | 0.758 | 0.661 | 0.73 | 0.425 |
| NCI-H661 | 0.846 | 0.69 | 0.894 | 0.63 | 0.768 | 1.02 | 0.834 | 0.846 | 0.815 | 0.695 | 0.489 | 0.429 | 0.379 | 0.912 | 0.845 | 0.837 | 0.731 | 0.472 |
| RERF-LC-KJ | 1.13 | 1.3 | 1.05 | 0.923 | 0.892 | 0.873 | 0.77 | 0.771 | 0.623 | 0.511 | 0.665 | 0.595 | 0.612 | 0.617 | 0.533 | 0.544 | 0.519 | 0.593 |
| HCC-15 | 1.19 | 0.98 | 0.956 | 0.869 | 0.998 | 0.64 | 0.625 | 0.578 | 0.559 | 0.462 | 0.404 | 0.376 | 0.385 | 0.538 | 0.476 | 0.405 | 0.446 | 0.399 |
| NCI-H1666 | 0.753 | 0.849 | 0.766 | 0.735 | 0.698 | 0.771 | 0.871 | 0.854 | 0.848 | 0.874 | 0.764 | 0.834 | 0.834 | 0.496 | 0.47 | 0.459 | 0.412 | 0.761 |
| LCLC-103H | 1.1 | 0.947 | 1.05 | 1.25 | 1.06 | 0.49 | 0.523 | 0.503 | 0.366 | 0.341 | 0.533 | 0.489 | 0.431 | 0.579 | 0.596 | 0.494 | 0.582 | 0.522 |
| NCI-H650 | 0.958 | 0.894 | 0.562 | 0.685 | 0.504 | 0.471 | 0.49 | 0.424 | 0.422 | 0.388 | 0.933 | 0.934 | 0.862 | 1.01 | 0.959 | 0.911 | 1.06 | 0.874 |

From the supplement of paper PMC10307832
